Data as given in US11512079B2, “Heterocycle substituted pyridine derivative antifungal agents” (Amplyx Pharmaceuticals, Inc., priority 2017, dated 2022).
Values after ≈ are worked out from the molar mass of the structure shown.

Key:
Assay type in all cases: cell-based
[1] = system: Aspergillus fumigatus MYA3626; test: In vitro antifungal assay (Example IX), microdilution broth, MEC; details: minimum effective concentration (shortening of hyphae), 35° C., 40-48 h, RPMI1640
Outline: (§1)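 Spore suspensions of A. fumigatus and R. pusillus adjusted to 1-2×10^4 spores/mL in RPMI1640 and exposed to compound dilutions prepared in DMSO, by broth microdilution. MEC taken as the lowest concentration shortening hyphae versus DMSO control wells, read as for echinocandins.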

[2] = system: Rhizomucor pusillus 46342; test: as above; details: minimum effective concentration (shortening of hyphae), 35° C., 40-48 h, RPMI1640
Outline: as §1

[3] = system: Candida albicans 90028; test: In vitro antifungal assay (Example IX), microdilution broth, MIC; details: minimum inhibitory concentration (≥50% inhibition), 35° C., 40-48 h, RPMI1640
Outline: (§2)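 CLSI broth microdilution in RPMI1640 with 2.5×10^3 cells/mL and final compound concentrations of 2-0.0019 μg/mL (1% DMSO). C. albicans 90028 plates were incubated at 35° C. for 40-48 h and C. neoformans H99 for 72 h. MIC was read as minimum inhibitory concentration, verified at 600 nm.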

[4] = system: Cryptococcus neoformans H99; test: as above; details: minimum inhibitory concentration (≥50% inhibition), 35° C., 72 h, RPMI1640
Outline: as §2

[5] = system: Cryptococcus gattii; test: as above; details: minimum inhibitory concentration (≥50% inhibition), 35° C., 72 h (Cryptococcus), RPMI1640
Procedure: Preparation of Fungal Suspension. C. albicans 90028 and C. neoformans H99 strains were streaked from frozen stocks at −80° C. onto Sabouraud Dextrose Agar (SDA) plates. These were allowed to grow for 24 h (C. albicans) and 48 h (C. neoformans) at 35° C. before using them in the assay. 5-6 individual colonies were picked and diluted into sterile water to obtain a fungal suspension. The cell density of the suspension was determined and the culture diluted with RPMI1640 medium to obtain a fungal suspension of 2.5×10^3 cells/mL. The suspension was used in the MIC measurement as described below.
Preparation of Compound Stocks and Intermediate Dilutions: The compounds were weighed and DMSO was added to prepare a 10 mg/mL stock. The solutions were mixed by vortexing and sonication at 37° C. for 5-10 mins. The resulting solutions were sterile filtered using a PTFE filter, and aliquoted (12 μL or as needed) and stored at −20° C. Intermediate compound dilutions were prepared in sterile polypropylene tubes in 100% DMSO. The compound stock solution was first diluted in DMSO to obtain a concentration of […] to 0.19 μg/mL.
MIC/MEC Measurement: 99 μL 1 of the fungal suspension in RPMI1640 prepared as above was added to each well of a 96-well round bottom assay plate. 1 μL of the intermediate compound dilutions (200-0.19 μg/mL) were added to wells of the plate. This led to a 100-fold dilution of the intermediate dilutions resulting in a final compound concentration of 2-0.0019 μg/mL in the plate. 1 μL of DMSO was added to “No drug” control wells. The solutions were mixed by shaking on a plate shaker for 10 mins and plates incubated at 35° C. for 40-48 h (C. albicans, A. fumigatus, R. pusillus) and 72 h (Cryptococcus). […] This was validated by thorough mixing and reading at 600 nm on a microplate reader. The minimum concentration that led to shortening of hyphae as compared to hyphal growth in DMSO control wells was determined as the minimum effective concentration (MEC) for A. fumigatus and R. pusillus (as read for echinocandins). The use of the MIC and MEC endpoints against yeasts and molds, respectively has been described by Pfaller M A, Duncanson F, Messer S A, Moet G J, Jones R N, Castanheira M. Antimicrob Agents Chemother. 2011. 55(11):5155-8. In vitro activity of a novel broad-spectrum antifungal, E1210, tested against Aspergillus spp. determined by CLSI and EUCAST broth microdilution methods. Results are shown in Table 2, and the letters indicate the following ranges in μg/mL: […]

Nc1ncccc1-c1cc(Cc2ccc(Cn3cc(F)cn3)cc2)no1 [compound 4, 3-(3-(4-((4-fluoro-1H-pyrazol-1-yl)methyl)benzyl)isoxazol-5-yl)pyridin-2-amine]
minimal effective concentration [1]: 0.01 to 0.1 µg/mL
minimal effective concentration [2]: 0.1 to 1 µg/mL
MIC [3]: 0.1 to 1 µg/mL (≈ 0.286 to 2.86 µM)
MIC [4]: 0.1 to 1 µg/mL (≈ 0.286 to 2.86 µM)
MIC [5]: 0.1 to 1 µg/mL (≈ 0.286 to 2.86 µM)

Nc1ncccc1-c1cc(Cc2ccc(Cn3cc(C(F)(F)F)cn3)cc2)no1 [compound 5, 3-(3-(4-((4-(trifluoromethyl)-1H-pyrazol-1-yl)methyl)benzyl)isoxazol-5-yl)pyridin-2-amine]
minimal effective concentration [1]: 0.1 to 1 µg/mL
minimal effective concentration [2]: 0.1 to 1 µg/mL
MIC [3]: 0.1 to 1 µg/mL (≈ 0.25 to 2.5 µM)
MIC [4]: 0.1 to 1 µg/mL (≈ 0.25 to 2.5 µM)
MIC [5]: 0.1 to 1 µg/mL (≈ 0.25 to 2.5 µM)

Nc1ncccc1-c1cc(Cc2ccc(Cc3ccccc3)cc2)no1 [compound 8, 3-(3-(4-benzylbenzyl)isoxazol-5-yl)pyridin-2-amine]
minimal effective concentration [1]: 0.1 to 1 µg/mL
minimal effective concentration [2]: 0.1 to 1 µg/mL
MIC [3]: 0.1 to 1 µg/mL (≈ 0.293 to 2.93 µM)
MIC [4]: 0.01 to 0.1 µg/mL (≈ 0.0293 to 0.293 µM)
MIC [5]: ≤ 0.01 µg/mL

Nc1ncccc1-c1cc(Cc2ccc(Cc3cccnc3)cc2)no1 [compound 9, 3-(3-(4-(pyridin-3-ylmethyl)benzyl)isoxazol-5-yl)pyridin-2-amine]
minimal effective concentration [1]: 0.1 to 1 µg/mL
minimal effective concentration [2]: 0.1 to 1 µg/mL
MIC [3]: 0.01 to 0.1 µg/mL (≈ 0.0292 to 0.292 µM)
MIC [4]: 0.1 to 1 µg/mL (≈ 0.292 to 2.92 µM)
MIC [5]: 0.01 to 0.1 µg/mL (≈ 0.0292 to 0.292 µM)

Nc1ncccc1-c1cc(Cc2ccc(Cc3cn[nH]c3)cc2)no1 [compound 10, 3-(3-(4-((1H-pyrazol-4-yl)methyl)benzyl)isoxazol-5-yl)pyridin-2-amine]
minimal effective concentration [1]: 0.1 to 1 µg/mL
minimal effective concentration [2]: > 1 µg/mL
MIC [3]: 0.1 to 1 µg/mL (≈ 0.302 to 3.02 µM)
MIC [4]: 0.1 to 1 µg/mL (≈ 0.302 to 3.02 µM)
MIC [5]: 0.1 to 1 µg/mL (≈ 0.302 to 3.02 µM)

Cn1cc(Cc2ccc(Cc3cc(-c4cccnc4N)on3)cc2)cn1 [compound 11, 3-(3-(4-((1-methyl-1H-pyrazol-4-yl)methyl)benzyl)isoxazol-5-yl)pyridin-2-amine]
minimal effective concentration [1]: 0.01 to 0.1 µg/mL
minimal effective concentration [2]: > 1 µg/mL
MIC [3]: 0.1 to 1 µg/mL (≈ 0.29 to 2.9 µM)
MIC [4]: 0.1 to 1 µg/mL (≈ 0.29 to 2.9 µM)
MIC [5]: 0.1 to 1 µg/mL (≈ 0.29 to 2.9 µM)

CCn1cc(Cc2ccc(Cc3cc(-c4cccnc4N)on3)cc2)cn1 [compound 12, 3-(3-(4-((1-ethyl-1H-pyrazol-4-yl)methyl)benzyl)isoxazol-5-yl)pyridin-2-amine]
minimal effective concentration [1]: 0.01 to 0.1 µg/mL
minimal effective concentration [2]: > 1 µg/mL
MIC [3]: 0.1 to 1 µg/mL (≈ 0.278 to 2.78 µM)
MIC [4]: 0.1 to 1 µg/mL (≈ 0.278 to 2.78 µM)
MIC [5]: 0.1 to 1 µg/mL (≈ 0.278 to 2.78 µM)

Nc1ncccc1-c1cc(Cc2ccc(Cc3cnoc3)cc2)no1 [compound 14, 3-(3-(4-(isoxazol-4-ylmethyl)benzyl)isoxazol-5-yl)pyridin-2-amine]
minimal effective concentration [1]: 0.01 to 0.1 µg/mL
minimal effective concentration [2]: 0.1 to 1 µg/mL
MIC [3]: 0.1 to 1 µg/mL (≈ 0.301 to 3.01 µM)
MIC [4]: 0.1 to 1 µg/mL (≈ 0.301 to 3.01 µM)
MIC [5]: 0.1 to 1 µg/mL (≈ 0.301 to 3.01 µM)

Nc1ncccc1-c1cc(Cc2ccc(Cc3cccc(F)n3)cc2)no1 [compound 15, 3-(3-(4-((6-fluoropyridin-2-yl)methyl)benzyl)isoxazol-5-yl)pyridin-2-amine]
minimal effective concentration [1]: ≤ 0.01 µg/mL
minimal effective concentration [2]: 0.1 to 1 µg/mL
MIC [3]: 0.01 to 0.1 µg/mL (≈ 0.0277 to 0.277 µM)
MIC [4]: 0.01 to 0.1 µg/mL (≈ 0.0277 to 0.277 µM)
MIC [5]: 0.01 to 0.1 µg/mL (≈ 0.0277 to 0.277 µM)

Nc1ncccc1-c1cc(Cc2ccc(CC3=CCCC3)cc2)no1 [compound 17, 3-(3-(4-(cyclopent-1-en-1-ylmethyl)benzyl)isoxazol-5-yl)pyridin-2-amine]
minimal effective concentration [1]: 0.01 to 0.1 µg/mL
minimal effective concentration [2]: 0.1 to 1 µg/mL
MIC [3]: 0.01 to 0.1 µg/mL (≈ 0.0302 to 0.302 µM)
MIC [4]: 0.01 to 0.1 µg/mL (≈ 0.0302 to 0.302 µM)
MIC [5]: 0.01 to 0.1 µg/mL (≈ 0.0302 to 0.302 µM)

Nc1ncccc1-c1cc(Cc2ccc(CCc3ccccc3)cc2)no1 [compound 18, 3-(3-(4-phenethylbenzyl)isoxazol-5-yl)pyridin-2-amine]
minimal effective concentration [1]: 0.01 to 0.1 µg/mL
minimal effective concentration [2]: 0.1 to 1 µg/mL
MIC [3]: 0.01 to 0.1 µg/mL (≈ 0.0281 to 0.281 µM)
MIC [4]: 0.1 to 1 µg/mL (≈ 0.281 to 2.81 µM)
MIC [5]: 0.1 to 1 µg/mL (≈ 0.281 to 2.81 µM)
